Calls of active or inactive are those of the source. Cut-off read from the data, not from the text of the source: actives have a measured IC50 and inactives only a lower limit.

For the assay, the target named is Envelope glycoprotein gp160 (Human immunodeficiency virus 1, UniProt Q6QLK5). The experiment in a line: inhibitors of HIV fusion peptide binding, primary screen, biochemical, uHTS, fluorescence dequenching (AID 1986).
Envelope glycoprotein gp160, sequence (Q6QLK5 whole entry, the tested form may be a part): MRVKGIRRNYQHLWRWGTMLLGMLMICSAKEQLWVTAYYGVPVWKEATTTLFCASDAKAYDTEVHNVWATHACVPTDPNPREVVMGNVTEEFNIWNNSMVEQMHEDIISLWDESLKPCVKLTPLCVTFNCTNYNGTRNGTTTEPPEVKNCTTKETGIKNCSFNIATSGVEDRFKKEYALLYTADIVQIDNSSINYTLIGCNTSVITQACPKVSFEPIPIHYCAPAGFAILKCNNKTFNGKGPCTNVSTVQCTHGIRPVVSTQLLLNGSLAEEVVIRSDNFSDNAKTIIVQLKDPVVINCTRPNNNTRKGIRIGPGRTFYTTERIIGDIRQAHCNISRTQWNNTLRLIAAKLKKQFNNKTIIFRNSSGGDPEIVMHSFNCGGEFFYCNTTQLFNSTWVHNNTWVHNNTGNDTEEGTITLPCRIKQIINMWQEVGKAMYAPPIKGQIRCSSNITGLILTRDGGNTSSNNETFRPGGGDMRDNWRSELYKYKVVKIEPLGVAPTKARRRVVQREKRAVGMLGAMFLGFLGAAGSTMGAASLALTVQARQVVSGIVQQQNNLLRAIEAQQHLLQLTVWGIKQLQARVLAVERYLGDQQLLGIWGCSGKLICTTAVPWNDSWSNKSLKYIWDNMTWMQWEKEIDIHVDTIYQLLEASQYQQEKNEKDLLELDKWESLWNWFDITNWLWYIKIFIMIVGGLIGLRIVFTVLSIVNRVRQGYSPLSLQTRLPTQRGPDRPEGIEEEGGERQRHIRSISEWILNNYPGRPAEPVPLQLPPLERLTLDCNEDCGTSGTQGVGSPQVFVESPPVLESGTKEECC
Regarding `Cc1ccc(S(=O)(=O)Oc2ccc(/C=C3/C(=N)N4C(=NC3=O)SN=C4S(C)(=O)=O)cc2)cc1`, the 50% inhibitory concentration (IC50) (in general, the point on the concentration scale where inhibition reaches its midpoint) is 16.9 µM (active). The result for `O=C(O)CCCCCN1C(=O)/C(=C\c2cn(-c3ccccc3)nc2-c2cccs2)SC1=S` reads 9.84 µM (active). The result for `CCOC(=O)C1=C(C)N=c2s/c(=C\c3ccc(OCC(=O)O)cc3)c(=O)n2C1c1ccc(OC(C)C)cc1` (centres undefined) reads 16.3 µM (active); that for `O=C(O)c1ccccc1NC(=O)c1ccccc1Nc1ccccc1`, 17.5 µM (active).

Source of the values: ChEMBL document CHEMBL1201862, “PubChem BioAssay data set” (2004).
